Positions of bridges follow the written chain, without caps; N, C: chain ends. Non-standard residues stand in square brackets, D forms with d. No end group written: not given here.
Tests used:
[1] = tested on: S. aureus MN8+mCherry biofilms; test: Fluorescence microscopy of biofilm adhesion to glass; assay type: cell-based, Staphylococcus aureus; settings: 80 μM, 24 h, 37° C.
Experimental: FIG. 2. S. aureus biofilm structures become less robust when grown in the presence of designed peptide inhibitors. (A) S. aureus MN8+mCherry™ biofilms were grown on glass substrates for 24 hours and then cells were washed and fixed. Addition of peptide inhibitors (80 μM) reduced adhesion to the slide, causing cells to detach during the wash step. Images are representative of duplicate wells. (B) In S. aureus SH1000 WT biofilms grown in regular LB medium, PSM amyloid fibrils are visible as deposits in spaces between cells (left). Upon addition of the designed peptide AP90 (80 μM), no extracellular fibril deposits were observed (right).
To further investigate the ability of designed peptides to inhibit PSM amyloid formation, fluorescent (mCherry™ ) MN8 biofilms were grown in culture plates with glass bottom wells. After 24 hours at 37° C. the biofilms were gently rinsed with pipetted saline to remove unattached biomass and the remaining attached cells were fixed and imaged. […] These qualitative results are in good agreement with the quantitative results obtained for amyloid inhibition in FIG. 1B. Addition of anti-α-sheet peptides triggered a significant reduction in PSM amyloid formation as measured by ThT fluorescence and also served to weaken the S. aureus biofilms by reducing the PSM amyloid fibril content of the extracellular matrix. […]

[2] = tested on: S. aureus SH1000 WT biofilms; test: ThT fluorescence assay of amyloid formation in S. aureus SH1000 WT biofilm cultures; assay type: cell-based, Staphylococcus aureus; settings: 24 h, 37° C., peptide 80 μM unless otherwise noted, vs peptide-free control
Experimental: We developed a novel protocol to identify amyloid fibril formation during biofilm development in two S. aureus strains—SH1000 WT, a rsbU^+ laboratory strain^27, and MN8, a clinical strain isolated from the human urogenital tract (Table 1). After 24 hours of batch growth in microtiter plates, biofilms were washed and incubated with Thioflavin T (ThT), and the resulting fluorescence signals served as a proxy for the extent of PSM fibril formation in the EM (FIG. 1A). Next, we utilized this assay to test α-sheet amyloid inhibitor designs and control peptides (sequences provided in Table 2) in batch biofilm cultures. The first inhibitor used is AP90 (Alternating Peptide #90, referred to as α1 previously^25,26). […]
Overnight cultures of S. aureus (see Table 1 for a list of strains used in this study) were spun down and re-suspended in fresh Luria-Bertani (LB) media to an optical density of 0.1 (600 nm). […] The detached biofilm suspensions were transferred to a 96-well black-walled plate (Corning, TC-treated polystyrene) and ThT fluorescence was read at 438/495 nm on a Perkin-Elmer Enspire™ plate reader. Fluorescence measurements were corrected by subtracting the background intensity of identical samples without ThT. […] After 15 minutes of incubation at room temperature, fluorescence ratios of the two dyes were determined using a Perkin-Elmer Enspire™ plate reader.

[3] = tested on: csgA expression; test: RT-qPCR of csgA expression in biofilms; assay type: cell-based, E. coli; settings: biofilms grown with peptide vs peptide-free controls
Source text: UTI89 biofilms were also cultivated in the presence of an unstructured peptide, P1, which retains a mixture of L- and D-amino acids but lacks the α-sheet secondary structure of AP193.

[4] = tested on: GERB 337; test: ThT assay of EM amyloid in clinical isolate biofilms; assay type: cell-based, E. coli; settings: antibiotic resistant clinical isolate GERB 337
Source text: (§1) FIG. 12. Synthetic α-sheet peptides inhibit amyloid formation in uropathogenic E. coli biofilms. […] E) AP193 is also effective in reducing the EM amyloid content of two clinical isolate strains, GERB 319 and GERB 337. Error bars indicate standard deviation of the mean of at least three replicates. Significance values are p<0.05: *, p<0.01: **, p<0.001: ***.
(§2) To extend the applicability of synthetic α-sheet peptides beyond the well-characterized UTI89 system, we obtained several E. coli isolates from pediatric patients who presented with urinary tract infections.

[5] = tested on: GERB 319; test: as above; assay type: cell-based, E. coli; settings: antibiotic resistant clinical isolate GERB 319
Source text: as §1, §2

Substance	Biofilm attachment to glass after rinsing [1]	Reduction of amyloid fibril formation (ThT fluorescence) [2] [%]	csgA expression (RT-qPCR) [3]	ThT fluorescence of biofilm [4]	ThT fluorescence of biofilm [5]
RGEmNlCwMNEYSGWcMnLkMGR (RGE[dM]N[dL]C[dW]MNEYSGW[dC]M[dN]L[dK]MGR; disulfide 7-16 (inferred)) [AP407, variant of AP90 with a disulfide bond]	caused nearly all of the biofilm to detach	56	–	–	–
RGEmNyFwMNEYYGWtMnCkMGR (RGE[dM]N[dY]F[dW]MNEYYGW[dT]M[dN]C[dK]MGR) [AP193, hydrophobic AP90 derivative, variant to support different chemical coupling reactions]	–	–	did not reveal any significant changes in csgA expression	significant decrease in ThT fluorescence	significant decrease in ThT fluorescence
